Assay results reported in article PMC11868579 (Nature Communications, 2024).
Values joined by “and” are separate entries in the source; they are usually repeats but may differ in a detail not shown here. Equal entries are not always repeated.

Legend:
[1] = target: T1, eIF4E major variant (D127) (Homo sapiens, UniProt P06730); assay type: binding; details: for LE (ligand efficiency) / Kd: major variant D127 (values in parentheses); for Kd: read-out: eIF4E Kd
T1 construct: made in house; host or cells: E. coli (as described for clone 2983)
Method: ITC experiments were performed on either a MicroCal VP-ITC or a MicroCal Auto-ITC200 at 25 °C in a buffer comprising 50 mM HEPES, 100 mM NaCl, 1 mM TCEP and 5% DMSO at pH 7.5. Typical titrations on the MicroCal VP-ITC were performed using 17 × 16.4 µL injections with a 250 s spacing between each injection and with a stirring speed of 307 rpm. Typical titrations on the MicroCal Auto-ITC200 were performed using 12 × 3 µL injections with a 150 s spacing between each injection and with a stirring speed of 750 rpm. ITC data analyses were performed with Origin 7.0 software using the “One Set of Sites” model.

[2] = test system: H1299 eIF4E-dTAG clones (C2-2, C3-1, N2-1, N3-2) and C3-1 rescue models; assay: IncuCyte real-time cell growth of eIF4E-dTAG clones and rescue models; assay type: cell-based, human; details: for proliferation on co-treatment: 25 μM with dTAG^V-1
Method: Real time monitoring of cell growth was performed with the IncuCyte ZOOM live cell imaging system (Essen BioSciences, USA). Cells were seeded in 96 well plates (Corning, cat#353072) and treated on the next day. The resulting phase-contrast images were analysed using IncuCyte ZOOM 2018A software and results were expressed as percentage confluency of cells.

[3] = target: eIF4E:eIF4G interaction (Homo sapiens, UniProt P06730); assay: Electro-chemiluminescent binding assay, eIF4E:eIF4G, HeLa cell lysates; assay type: biochemical; set-up: endogenous in cells; host or cells: HeLa cells (lysates); details: for EC50: n = 4, read-out: Inhibition of PPI in HeLa cells: eIF4E-eIF4G interaction; for binding of eIF4G or 4E-BP1 with eIF4E, luminescence normalised to DMSO control, Average: HeLa, n=3, Fig. 4e
Method: This assay uses plates with carbon electrodes and electro-chemiluminescent labels (SULFO-TAGs) that are conjugated to detection antibodies. When an electric current is applied to the plate electrodes the SULFO-TAG labels will emit light that is measured to quantify analytes in the sample. […] The plates were washed with 3 ×150 µl/well MSD wash buffer (cat#R61AA-1; 0.2% Tween-20 in PBS), then blocked with 150 µl/well block buffer (MSD, cat# R93AA) for 1 h. […] The incubated plates were washed 4x in 150 µl in MSD wash buffer and were re-blocked by the addition of 25 μl of blocking buffer containing a 1:500 dilution of the secondary antibody and incubated for 1 hr at RT with rotational shaking. […] Plates were then washed again 4x in 150 µl in MSD wash buffer and 25 μl of a 1:50 dilution of Goat anti-rabbit Sulfo-Tag (MSD, Cat# R32AB-1) in MSD blocking buffer was added and the plates incubated for 1 h at RT with rotational shaking. After a final wash step, 150 μl Read Buffer T4X (MSD, Cat# R92-TC2) was added and the plate read using the MSD QuickPlex SQ 120 plate reader.

[4] = target: T2, eIF4E-dTAG protein (Homo sapiens, UniProt P06730); assay: CETSA of eIF4E-dTAG protein in H1299 C3-1 cells; assay type: cell-based; details: relative to control = 1.000, n=3
T2 construct: expressed in transfected cells
Method: Cells (1.5 × 10^6 cells) were plated into 75 cm^2 flasks and allowed to attached overnight. After treatment with compound 4 or 5 for 6 h, they were harvested by trypsinisation and washed x2 in ice cold PBS. Cells were resuspended in 1 ml of cold PBS supplemented with protease and phosphatase inhibitors (Fisher Scientific, cat#1861281). Resuspended cells were divided into 100 μl aliquots and centrifuged at 300 x g for 3 min at 4 °C. Following centrifugation, 75μl of supernatant was removed and cells resuspended in the remaining volume. Cell suspensions were heated at 40.9, 43.7, 48.1, 52.9, 57.6, 62.4, 67.2, 71.9, 76.3 and 79.1 °C for 3 mins followed by cooling at 20 °C for 3 min[25]. Suspensions were freeze-thawed twice using liquid nitrogen. Soluble fractions were separated from cell debris by centrifuging at 20,000 x g for 30 min at 4 °C. Samples were then analysed by Western Blot. […]
Vinculin was used as a loading control. c Thermal stabilisation of eIF4E-dTAG protein by compound 4 or 5 binding. Quantification of immunoblots from H1299 C3-1cells incubated at 57.6 °C, following treatment with compound 4 (50, 25, 10, 5, 1, 0.5 μM) or compound 5 (50 μM) for 6 hr. Vinculin was […]
(1 picture or pasted object on this page, not shown here)

[5] = test system: cap-dependent translation; assay: HeLa in vitro translation assay, cap-dependent reporter; assay type: biochemical, human; details: for fLuc (CAP) luminescence normalized to DMSO control, Average: HeLa lysate IVT, n=3
Method: HeLa In vitro translation (IVT) assay kits were purchased from Thermo Fisher(cat#88882). Bicistronic reporter mRNA was prepared from using a CMV/T7-renilla luciferase-IRES(FDMV)-firefly luciferase reporter vector as template DNA (supplied by Oxford Genetics Ltd.) using Message Machine T7 Ultra transcription Kit (Thermo Fisher, cat# AM1345) to generate in vitro transcribed mRNA. DNA template was removed with Turbo DNase from the transcription kit and the mRNA purified using RNeasy columns (Qiagen, cat#74204). RNA concentration was adjusted to 1 µg/µl using a Nanodrop. In vitro translation assays were then set up using a HeLa IVT kit according to the manufacturer’s protocol. The reaction was analysed using Dual Glo luciferase reporter assays (Promega, cat#E2920). Compounds were diluted from 100x DMSO stocks 1:10 in PBS and 2.5 µl transferred to 96 well PCR plates (Starlab, cat#I1402-9700). 22.5 µl IVT reaction mix (1.5 mL HeLa lysate, 60 µl RNAsin (Promega, cat#N2115), 300 µl accessory proteins, 600 µl reaction buffer, 200 µl nuclease free water and 30 µl […] mRNA) was added and incubated for 30 min at 30 °C (PCR alphacycler 4, PCRmax, Stone, Staffordshire, UK). The samples were placed on ice for 10 min, then 10 µl was removed and transferred to a white 96 well assay plate (Corning, cat#3917). […]

T1 sequence (P06730 with tags, fused parts or gaps): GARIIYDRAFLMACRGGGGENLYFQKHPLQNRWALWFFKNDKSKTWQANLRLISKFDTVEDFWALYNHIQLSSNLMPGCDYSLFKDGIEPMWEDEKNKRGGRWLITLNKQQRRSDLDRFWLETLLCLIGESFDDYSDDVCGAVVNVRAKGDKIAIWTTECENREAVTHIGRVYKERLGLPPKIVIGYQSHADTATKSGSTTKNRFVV
Sequence of eIF4E:eIF4G interaction (P06730 2-217 limits assumed): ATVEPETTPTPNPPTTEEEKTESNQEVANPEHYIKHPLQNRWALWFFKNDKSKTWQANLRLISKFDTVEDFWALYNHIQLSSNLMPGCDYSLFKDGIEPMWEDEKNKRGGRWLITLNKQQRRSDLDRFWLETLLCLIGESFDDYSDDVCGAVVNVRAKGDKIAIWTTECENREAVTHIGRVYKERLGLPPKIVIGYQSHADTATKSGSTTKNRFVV
T2 sequence (P06730 with tags, fused parts or gaps): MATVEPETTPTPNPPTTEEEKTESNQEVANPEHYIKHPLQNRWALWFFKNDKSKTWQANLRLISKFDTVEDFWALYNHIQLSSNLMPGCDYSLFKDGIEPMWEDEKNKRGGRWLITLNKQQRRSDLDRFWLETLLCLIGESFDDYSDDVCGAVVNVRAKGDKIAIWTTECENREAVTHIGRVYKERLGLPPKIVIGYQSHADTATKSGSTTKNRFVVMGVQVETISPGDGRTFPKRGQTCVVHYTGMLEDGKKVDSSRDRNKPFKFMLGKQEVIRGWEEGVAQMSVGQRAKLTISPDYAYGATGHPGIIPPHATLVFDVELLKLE

Compound | LE (ligand efficiency) [1] | Kd ([1]; ITC) | EC50 ([3]; HeLa cell lysates) | binding of eIF4G or 4E-BP1 with eIF4E, luminescence normalised to DMSO control, Average ([3]; Conc 0.03 μM) | binding of eIF4G or 4E-BP1 with eIF4E, luminescence normalised to DMSO control, Average ([3]; Conc 0.1 μM) | binding of eIF4G or 4E-BP1 with eIF4E, luminescence normalised to DMSO control, Average ([3]; Conc 0.3 μM) | binding of eIF4G or 4E-BP1 with eIF4E, luminescence normalised to DMSO control, Average ([3]; Conc 1 μM) | binding of eIF4G or 4E-BP1 with eIF4E, luminescence normalised to DMSO control, Average ([3]; Conc 3 μM) | binding of eIF4G or 4E-BP1 with eIF4E, luminescence normalised to DMSO control, Average ([3]; Conc 10 μM) | binding of eIF4G or 4E-BP1 with eIF4E, luminescence normalised to DMSO control, Average ([3]; Conc 30 μM) | binding of eIF4G or 4E-BP1 with eIF4E, luminescence normalised to DMSO control, Average ([3]; Conc 100 μM) | binding of eIF4G or 4E-BP1 with eIF4E, luminescence normalised to DMSO control, Average ([3]; Conc 300 μM) | binding of eIF4G or 4E-BP1 with eIF4E, luminescence normalised to DMSO control, Average ([3]; Conc 1000 μM) | Thermal stabilisation of eIF4E-dTAG protein, Average ([4]; 50 μM) | fLuc (CAP) luminescence normalized to DMSO control, Average ([5]; 1 μM) | fLuc (CAP) luminescence normalized to DMSO control, Average ([5]; 10 μM) | fLuc (CAP) luminescence normalized to DMSO control, Average ([5]; 100 μM) | other results
CC[C@H](O[C@H](C)CO)c1ccc(-c2ccccc2F)cc1NCCO [Compound 4] | 0.38 (kcal/mol)/heavy atom | 90 nM | 1400 nM | 97.2% | 114.5% | 82.4% | 79.9% | 54.2% | 38.7% | 33.9% | 26.4% | 22.8% | 28.1% | 1.946 | 79.4% | 29.0% | 23.9% | enthalpy DH ([1]; ITC, eIF4E D127): -10.2 kcal/mol; entropic penalty -TDS ([1]; ITC, eIF4E D127): 0.6 ± 0.4 kcal/mol; proliferation on co-treatment ([2]; C3-1 or L85R rescue line): no additional loss of proliferation or MCL1 expression; proliferation on co-treatment ([2]; W73F mutant model): significant combinatorial effect on proliferation; effect on proliferation ([2]; 25 μM, absence of dTAG^V-1, C3-1, W73F and L85R models): no effect on the MCL1 biomarker or proliferation; effects on cell growth, control combination ([2]; compound 4 with neg-dTAG^V-1): no significant effects; sensitisation on co-treatment ([2]; with dTAG^V-1, W73F mutant model): ≈ 50%; eIF4G:eIF4E HeLa, luminescence ratio normalised to DMSO control ([3]; HeLa lysates, 100 µM, 30 min, single experiments Expt 1, Expt 2): 6.4% and 10%; Thermal stabilisation of eIF4E-dTAG protein, Average ([4]; 0.5 μM): 1.070; Thermal stabilisation of eIF4E-dTAG protein, Average ([4]; 1 μM): 1.047; Thermal stabilisation of eIF4E-dTAG protein, Average ([4]; 5 μM): 1.235; Thermal stabilisation of eIF4E-dTAG protein, Average ([4]; 10 μM): 1.737; Thermal stabilisation of eIF4E-dTAG protein, Average ([4]; 25 μM): 1.613
CC[C@@H](O[C@H](C)CO)c1ccc(-c2ccccc2F)cc1NCCO [Compound 5] | - (0.3) (kcal/mol)/heavy atom | 3000 nM | > 100000 nM | 75.0% | 70.5% | 80.4% | 86.3% | 81.2% | 84.0% | 77.0% | 75.2% | 79.2% | 79.6% | 1.004 | 115.8% | 67.5% | 84.6% | reduced binding affinity by ITC ([1]; compound 5 versus compound 4): 30 fold; effects on cell growth, control combination ([2]; compound 5 with dTAG^V-1): no significant effects; effect on eIF4G binding ([3]; HeLa cell lysates): limited effect on eIF4G binding compared to 4; effect on cap-dependent translation ([5]; 1, 10, 100 µM): no significant effect
CC[C@H](C(=O)N1CCCC[C@H]1C(=O)O[C@H](CCc1ccc(OC)c(OC)c1)c1ccccc1OCC(=O)NCCCCCCC(=O)N[C@H](C(=O)N1C[C@H](O)C[C@H]1C(=O)N[C@@H](C)c1ccc(-c2scnc2C)cc1)C(C)(C)C)c1cc(OC)c(OC)c(OC)c1 [dTAG^V-1] | – | – | – | – | – | – | – | – | – | – | – | – | – | – | – | – | – | growth of eIF4E-dTAG clones ([2]; treatment for 6 days, 0.5 or 1 µM): inhibited growth of all 4 clones
